Where “and” joins values, the source holds several entries; their conditions need not be identical. Identical values can stand only once. Like-named read-outs stand apart in the source and are kept apart here.

Data on 36 molecules can be found in patent US8394828B2 (Janssen Pharmaceutica, NV, priority 2003, dated 2013).

Test [1] deals with T1, human VR1 (Homo sapiens, UniProt Q8NER1).
T1 construct: expressed in transfected cells; host or cells: HEK293
Description: Human VR1 functional assay (intracellular Ca++, FLIPR, capsaicin challenge). The format is cell-based. As to the method: The functional activity of the test compounds was determined by measuring changes in intracellular calcium concentration using a Ca^++-sensitive fluorescent dye and FLIPR™ technology.
EC50 or IC50 values were determined from dose-response studies.

Test [2] deals with T1, human VR1. Description: Human VR1 [3H] RTX binding assay. The following applies: 3H-RTX binding; for inhibition at 1 µM: compound at 1 μM; for Ki: hVR1, read-out: 3H-RTX binding assay Ki hVR1. In short, it runs like this:
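Membranes from HEK293 cells transfected with human VR1, about 120 μg protein/ml, incubated with [3H] RTX in HEPES buffer pH 7.4 with 0.25 mg/mL fatty acid-free BSA for 60 min at 37° C. Bound radioactivity measured by scintillation counting. Non-specific binding defined with 200 nM unlabeled RTX.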

[3] abbreviates: hVR1, capsaicin challenge, read-out: FLIPR functional assay IC50 hVR1.
The mark [4] stands for this setting: FLIPR functional assay IC50 hVR1 60 min, 60 min.

T1 sequence (Q8NER1 whole entry): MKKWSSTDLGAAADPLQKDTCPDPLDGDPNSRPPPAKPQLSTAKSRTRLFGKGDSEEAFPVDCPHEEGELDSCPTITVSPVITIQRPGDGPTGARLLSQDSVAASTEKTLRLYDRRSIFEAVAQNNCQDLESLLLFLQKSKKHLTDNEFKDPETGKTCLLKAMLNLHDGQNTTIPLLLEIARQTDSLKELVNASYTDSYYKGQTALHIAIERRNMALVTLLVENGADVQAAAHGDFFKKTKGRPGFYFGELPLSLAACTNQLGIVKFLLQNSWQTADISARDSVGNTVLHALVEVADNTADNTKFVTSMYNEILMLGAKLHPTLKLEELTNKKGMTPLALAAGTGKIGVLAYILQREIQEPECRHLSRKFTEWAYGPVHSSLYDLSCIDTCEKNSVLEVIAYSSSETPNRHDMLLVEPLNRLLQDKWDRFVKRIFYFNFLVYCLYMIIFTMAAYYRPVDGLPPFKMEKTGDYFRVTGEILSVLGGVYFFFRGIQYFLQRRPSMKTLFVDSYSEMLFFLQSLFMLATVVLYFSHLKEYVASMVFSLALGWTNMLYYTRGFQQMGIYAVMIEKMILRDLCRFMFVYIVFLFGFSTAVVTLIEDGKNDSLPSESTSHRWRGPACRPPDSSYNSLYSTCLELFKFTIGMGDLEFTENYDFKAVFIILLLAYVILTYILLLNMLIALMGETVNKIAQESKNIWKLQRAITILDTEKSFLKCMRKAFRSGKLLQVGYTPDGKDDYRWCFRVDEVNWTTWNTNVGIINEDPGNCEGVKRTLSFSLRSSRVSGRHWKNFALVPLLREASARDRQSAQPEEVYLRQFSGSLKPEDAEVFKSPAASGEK

On to `O=C(Nc1cnc2ccccc2c1)c1ccc(N2CCC(Cc3ccccc3)CC2)nc1` [4-Benzyl-3,4,5,6-tetrahydro-2H-{1,2′}bipyridinyl-5′-carboxylic acid quinolin-3-ylamide], for which the 50% inhibitory concentration (IC50) at human VR1 [1] (setting [3]) was determined as 440 nM. Further, at human VR1 [2], the inhibition at 1 µM was 100% and the Ki amounted to 25.6 nM.

As to `CCCCOc1ccc(C(=O)Nc2cnc3ccccc3c2)cc1` [4-Butoxy-N-quinolin-3-yl-benzamide], the concentration for half-maximal inhibition (IC50) at human VR1 [1] (setting [3]) worked out at 10000 nM. Also, the Ki on human VR1 [2] came out at 155 nM.

Consider `CCCCC1CCC(C(=O)Nc2cnc3ccccc3c2)CC1` (centres unmarked) [4-Butyl-cyclohexanecarboxylic acid quinolin-3-ylamide], for which the IC50 at human VR1 [1] (setting [3]) was determined as 170 nM. Besides, at human VR1 [2], the inhibition at 1 µM was determined as 81% and the Ki turned out to be 124 nM.

On to `CN(C(=O)c1ccc(NC2CCCCC2)cc1)c1cnc2ccccc2c1` [4-Cyclohexylamino-N-methyl-N-quinolin-3-yl-benzamide], for which the IC50 on human VR1 [1] (setting [3]) is 10000 nM. The Ki on human VR1 [2] worked out at 2160 nM.

`O=C(Nc1cnc2ccccc2c1)c1ccc(NC2CCCC2)cc1` [4-Cyclopentylamino-N-quinolin-3-yl-benzamide]: the IC50 on human VR1 [1] (setting [3]) was 3200 nM. The inhibition at 1 µM at human VR1 [2] is 32%.

`O=C(Nc1cnc2ccccc2c1)c1ccc(N(Cc2ccccc2)Cc2ccccc2)cc1` [4-Dibenzylamino-N-quinolin-3-yl-benzamide] returned an IC50 on human VR1 [1] (setting [4]) of 4200 nM. On human VR1 [2], the inhibition at 1 µM was 51% and the Ki is 441 nM.

On to `CCCCN(CCCC)c1ccc(C(=O)Nc2cnc3ccccc3c2)cc1` [4-Dibutylamino-N-quinolin-3-yl-benzamide], for which the IC50 against human VR1 [1] (setting [4]) was 270 nM; at human VR1 [1] (setting [3]), 4600 nM. In addition, the Ki on human VR1 [2] was determined as 241 nM.

`CCCCCCN(CCCCCC)c1ccc(C(=O)Nc2cnc3ccccc3c2)cc1` [4-Dihexylamino-N-quinolin-3-yl-benzamide]: on human VR1 [1] (setting [4]), half-maximal inhibition (IC50) was put at 2900 nM. For the same molecule, at human VR1 [2], the inhibition at 1 µM was 74% and the Ki amounted to 185 nM.

For `CCCN(CCC)c1ccc(C(=O)Nc2cnc3ccccc3c2)cc1` [4-Dipropylamino-N-quinolin-3-yl-benzamide], the values for the IC50 on human VR1 [1] (setting [4]) and at human VR1 [1] (setting [3]) were 166 nM and 610 nM, respectively. Besides, the Ki at human VR1 [2] is 219 nM.

For the molecule `CCCCCNc1ccc(C(=O)Nc2cnc3ccccc3c2)cc1` [4-Pentylamino-N-quinolin-3-yl-benzamide], the IC50 against human VR1 [1] (setting [4]) came to 30000 nM; on human VR1 [1] (setting [3]), 8100 nM. For the same molecule, the inhibition constant Ki on human VR1 [2] amounted to 876 nM.

`O=C(Nc1cnc2ccccc2c1)c1ccc(NCCc2ccccc2)cc1` [4-Phenethylamino-N-quinolin-3-yl-benzamide]: the half-maximal inhibitory concentration (IC50) on human VR1 [1] (setting [3]) is 9200 nM. In addition, the inhibition at 1 µM at human VR1 [2] was found to be 31%.

As for `O=C(Nc1cnc2ccccc2c1)c1ccc(N2CCNCC2)cc1` [4-Piperazin-1-yl-N-quinolin-3-yl-benzamide], the concentration for half-maximal inhibition (IC50) on human VR1 [1] (setting [3]) is 740 nM. Besides, the inhibition at 1 µM on human VR1 [2] worked out at 1%.

For the molecule `CCCC1CCN(c2ccc(C(=O)Nc3cnc4ccccc4c3)cn2)CC1` [4-Propyl-3,4,5,6-tetrahydro-2H-{1,2′}bipyridinyl-5′-carboxylic acid quinolin-3-ylamide], the IC50 on human VR1 [1] (setting [3]) is 490 nM. Besides, on human VR1 [2], the inhibition at 1 µM turned out to be 93% and the Ki was 117 nM.

In the case of `CC(C)(C)C1CCC(C(=O)Nc2cnc3ccccc3c2)CC1` (centres unmarked) [4-tert-Butyl-cyclohexanecarboxylic acid quinolin-3-ylamide], the IC50 at human VR1 [1] (setting [3]) turned out to be 10000 nM. Besides, at human VR1 [2], the inhibition at 1 µM came to 97% and the Ki stood at 64.9 nM.

Regarding `CCCCC(C)(C)c1ccc(CCCC(=O)Nc2cnc3ccccc3c2)cc1` [4-{4-(1,1-Dimethyl-pentyl)-phenyl}-N-quinolin-3-yl-butyramide], the 50% inhibitory concentration (IC50) at human VR1 [1] (setting [3]) was 10000 nM. Besides, on human VR1 [2], the inhibition at 1 µM was 82% and the Ki was determined as 221 nM.

As for `CCC(C)(C)c1ccc(C=CCC(=O)Nc2cnc3ccccc3c2)cc1` [4-{4-(1,1-Dimethyl-propyl)-phenyl}-but-3-enoic acid quinolin-3-ylamide], the IC50 at human VR1 [1] (setting [3]) was found to be 10000 nM. At human VR1 [2], the inhibition at 1 µM was 55% and the Ki was 137 nM.

For `CN(CCC(C)(C)C)c1ccc(C(=O)Nc2cnc3ccccc3c2)cc1` [4-{(3,3-Dimethyl-butyl)-methyl-amino}-N-quinolin-3-yl-benzamide], the IC50 against human VR1 [1] (setting [4]) is 1300 nM. The IC50 at human VR1 [1] (setting [3]) came out at 10000 nM. At human VR1 [2], the inhibition at 1 µM was determined as 99% and the inhibition constant Ki was 20.9 nM.

On to `CC(C)CCN(C)c1ccc(C(=O)Nc2cnc3ccccc3c2)cc1` [4-{Methyl-(3-methyl-butyl)-amino}-N-quinolin-3-yl-benzamide], for which the half-maximal inhibitory concentration (IC50) on human VR1 [1] (setting [3]) worked out at 280 nM. Further, at human VR1 [2], the inhibition at 1 µM is 90% and the Ki stood at 554 nM.

Take `CN(CCCc1ccccc1)c1ccc(C(=O)Nc2cnc3ccccc3c2)cc1` [4-{Methyl-(3-phenyl-propyl)-amino}-N-quinolin-3-yl-benzamide]: at human VR1 [1] (setting [4]), inhibition was half-maximal at 156 nM (IC50). Also, the 50% inhibitory concentration (IC50) at human VR1 [1] (setting [3]) was determined as 10000 nM. At human VR1 [2], the inhibition at 1 µM came out at 97% and the Ki is 74.1 nM.

With `Cc1ccc(C(C)CCN(C)c2ccc(C(=O)Nc3cnc4ccccc4c3)cc2)o1` (centres unmarked) [4-{Methyl-{3-(5-methyl-furan-2-yl)-butyl}-amino}-N-quinolin-3-yl-benzamide], on human VR1 [1] (setting [3]), the IC50 was 1500 nM. At human VR1 [2], the inhibition at 1 µM stood at 102% and the Ki stood at 31.2 nM.

In the case of `O=C(Nc1cnc2ccccc2c1)c1ccc2c(c1)CCCC2` [5,6,7,8-Tetrahydro-naphthalene-2-carboxylic acid quinolin-3-ylamide], at human VR1 [1] (setting [3]), the half-inhibitory concentration (IC50) is 10000 nM. Moreover, the inhibition constant Ki at human VR1 [2] came out at 62.3 nM.

With `O=C(Nc1cnc2ccccc2c1)c1cc2cc(Cl)ccc2[nH]1` [5-Chloro-1H-indole-2-carboxylic acid quinolin-3-ylamide], the IC50 on human VR1 [1] (setting [3]) came to 2800 nM. For the same molecule, the inhibition at 1 µM at human VR1 [2] turned out to be 36%.

`CCCCCc1ccc(C(=O)Nc2cnc3ccccc3c2)s1` [5-Pentyl-thiophene-2-carboxylic acid quinolin-3-ylamide]: on human VR1 [1] (setting [3]), the IC50 is 900 nM. Further, on human VR1 [2], the inhibition at 1 µM is 57% and the Ki was 647 nM.

Consider `O=C(Nc1cnc2ccccc2c1)c1ccc(N2CC3CCCC(C3)C2)nc1` [6-(3-Aza-bicyclo{3.3.1}non-3-yl)-N-quinolin-3-yl-nicotinamide], for which the IC50 against human VR1 [1] (setting [4]) amounted to 279 nM. In addition, the 50% inhibitory concentration (IC50) on human VR1 [1] (setting [3]) is 3700 nM. Moreover, on human VR1 [2], the inhibition at 1 µM came out at 80% and the Ki was 9.86 nM.

Consider `CN(Cc1ccccc1)c1ccc(C(=O)Nc2cnc3ccccc3c2)cn1` [6-(Benzyl-methyl-amino)-N-quinolin-3-yl-nicotinamide], for which the IC50 on human VR1 [1] (setting [3]) was found to be 390 nM. In addition, at human VR1 [2], the inhibition at 1 µM came to 43%.

For `CN(c1ccc(C(=O)Nc2cnc3ccccc3c2)cn1)C1CCCCC1` [6-(Cyclohexyl-methyl-amino)-N-quinolin-3-yl-nicotinamide], the IC50 at human VR1 [1] (setting [3]) was 300 nM and 245 nM. Also, on human VR1 [2], the inhibition at 1 µM came to 99%; the inhibition constant Ki is 35.9 nM and 218 nM.

Take `CCCCCCCN(C)c1ccc(C(=O)Nc2cnc3ccccc3c2)cn1` [6-(Heptyl-methyl-amino)-N-quinolin-3-yl-nicotinamide]: the IC50 on human VR1 [1] (setting [3]) is 1500 nM. At human VR1 [2], the inhibition at 1 µM came to 90% and the Ki was 97.3 nM.

As to `CCCCCN(C)c1ccc(C(=O)Nc2cnc3ccccc3c2)cn1` [6-(Methyl-pentyl-amino)-N-quinolin-3-yl-nicotinamide], on human VR1 [1] (setting [3]), the IC50 is 400 nM. Besides, at human VR1 [2], the inhibition at 1 µM stood at 91% and the Ki worked out at 122 nM.

Take `CN(CCc1ccccc1)c1ccc(C(=O)Nc2cnc3ccccc3c2)cn1` [6-(Methyl-phenethyl-amino)-N-quinolin-3-yl-nicotinamide]: the figures for the half-inhibitory concentration (IC50) on human VR1 [1] (setting [4]) and at human VR1 [1] (setting [3]) were 540 nM and 1200 nM, respectively. The inhibition at 1 µM on human VR1 [2] worked out at 97%. Also, on human VR1 [2], the inhibition constant Ki was determined as 243 nM.

On to `O=C(Nc1cnc2ccccc2c1)c1ccc(N2CCCCCC2)nc1` [6-Azepan-1-yl-N-quinolin-3-yl-nicotinamide], for which the half-maximal inhibitory concentration (IC50) at human VR1 [1] (setting [3]) was determined as 215 nM. Further, on human VR1 [2], the inhibition at 1 µM worked out at 44% and the inhibition constant Ki is 124 nM.

For the molecule `O=C(Nc1cnc2ccccc2c1)c1ccc(N2CCCCCCC2)nc1` [6-Azocan-1-yl-N-quinolin-3-yl-nicotinamide], the IC50 was found to be 250 nM at human VR1 [1] (setting [4]) and 5160 nM on human VR1 [1] (setting [3]). Also, the inhibition at 1 µM on human VR1 [2] worked out at 102%. The inhibition constant (Ki) at human VR1 [2] came to 30.4 nM.

Turning to `O=C(Nc1cnc2ccccc2c1)c1ccc(NC2CCCCC2)nc1` [6-Cyclohexylamino-N-quinolin-3-yl-nicotinamide], the half-inhibitory concentration (IC50) on human VR1 [1] (setting [3]) is 990 nM. Also, the inhibition at 1 µM on human VR1 [2] amounted to 1%.

Take `CCCCCNc1ccc(C(=O)Nc2cnc3ccccc3c2)cn1` [6-Pentylamino-N-quinolin-3-yl-nicotinamide]: the IC50 against human VR1 [1] (setting [4]) is 8000 nM. For the same molecule, at human VR1 [2], the inhibition at 1 µM stood at 57% and the Ki is 281000 nM.

As for `O=C(CCc1ccc(C23CC4CCCC(CC(C4)C2)C3)cc1)Nc1cnc2ccccc2c1` [N-Quinolin-3-yl-3-(4-tricyclo{5.3.1.13,9}dodec-1-yl-phenyl)-propionamide], the half-inhibitory concentration (IC50) against human VR1 [1] (setting [4]) came to 1900 nM. Moreover, at human VR1 [2], the Ki is 176 nM.

With `CC1(C)CCC(C)(C)c2cc(CCC(=O)Nc3cnc4ccccc4c3)ccc21` [N-Quinolin-3-yl-3-(5,5,8,8-tetramethyl-5,6,7,8-tetrahydro-naphthalen-2-yl)-propionamide], on human VR1 [1] (setting [3]), the IC50 is 70 nM. At human VR1 [2], the Ki was 13 nM.

Regarding `O=C(CCc1ccc2c(c1)CCCC2)Nc1cnc2ccccc2c1` [N-Quinolin-3-yl-3-(5,6,7,8-tetrahydro-naphthalen-2-yl)-propionamide], at human VR1 [1] (setting [3]), the half-maximal inhibitory concentration (IC50) was 10000 nM. At human VR1 [2], the inhibitory constant (Ki) came out at 200 nM.

The IC50 is the point on the concentration scale where inhibition reaches its midpoint. Usually inhibition stands for the change of the read-out against control, counted positive when it falls. In general, Ki refers to a dissociation constant, usually derived from enzyme kinetics or from competition with a known ligand.
